# In publication PMC11843613, “Further Optimization of the mGlu1 PAM VU6024578/BI02982816: Discovery and Characterization of VU6033685” (ACS Chemical Neuroscience, 2025):
# Where “and” joins values, the source holds several entries; their conditions need not be identical. Equal entries are not always repeated. Where two headings read alike, the source gives them in different places.
# How the values were obtained:
# human mGlu1 = target: T1, human mGlu1 (Homo sapiens, UniProt Q13255); assay: mGlu1 PAM calcium mobilization assay (human); assay type: cell-based; settings: for fold increase in mGlu1 PAM potency over 5: human mGlu1 EC50 ratio versus 5
# T1 construct: expressed in transfected cells; pcDNA5/TO)
# From the text: Molecular Pharmacology. Tetracycline-tested fetal bovine serum (FBS) was purchased from Atlanta Biologicals (Lawrenceville, GA), and all other tissue culture reagents and Fluo-4-acetoxymethylester (Fluo-4-AM) were purchased from Life Technologies (Carlsbad, CA).
# Tetracycline hydrochloride (Sigma), L-glutamic acid (Tocris, Minneapolis, MN), and (S)-3,5-dihydroxyphenylglycine (DHPG) (Abcam, Cambridge, MA). EZ-Link Sulfo-NHS-SS-Biotin and NeutrAvidin agarose beads (Pierce Biotechnology, Rockford, IL).
# Cell Culture and Mutagenesis. Tetracycline-inducible human mGlu 1 WT-T-RExTM-293 cells (Wu et al, Science 2014) were cultured at 37 °C in Dulbecco’s Modified Eagle Medium (DMEM) growth medium containing 10% Tet-tested FBS, 2 mM L-glutamine, 20 mM HEPES, 0.1 mM non-essential amino acids, 1 mM sodium pyruvate, antibiotic/antimycotic, 100 µg/mL hygromycin and 5 µg/mL blasticidin in the presence of 5% CO 2. […]
# Calcium Mobilization Assay. To determine the potency of mGlu 1 PAMs in calcium assays, Ca flux was measured as previously described in ACS Chem. Bio. 2014, 9, 2334-2346. Briefly, the day before the assay, human mGlu1 WT-T-RExTM-293 cells were plated in black-walled, clear-bottomed, poly-D-lysine coated 96-well plates at 80,000 cells/100 µL assay medium (DMEM supplemented with 10% dialyzed FBS, 20 mM HEPES, and 1 mM sodium pyruvate) containing 50 ng/mL of tetracycline to induce mGlu1 expression. The next day, media was removed and the cells were incubated with 50 µL of 1.15 µM Fluo-4 AM dye solution prepared in assay buffer (buffer (Hank’s balanced salt solution, 20 mM HEPES, and 2.5 mM probenecid) for 45 min at 37 °C, the dye was removed and replaced with 45 µL of assay buffer. Then, calcium flux was measured using Flexstation II (Molecular Devices, Sunnyvale, CA). Compounds serially diluted […]
# at half log concentrations in DMSO were further diluted in assay buffer. The compounds or DMSO vehicle were added to cells and incubated for 2.5 min and an EC20 concentration of glutamate was added and incubated for 1 min. An ECmax concentration of glutamate was also added to cells that were incubated with DMSO vehicle to accurately calculate the EC20 calcium response. Data were normalized by subtracting the basal florescent peak before EC20 agonist addition from the maximal peak elicited by EC20 agonist and PAMs. Using GraphPad Prism 5.0, the concentration response curves were generated and the potencies of the mGlu1 PAMs were determined. […]
# rat mGlu1 = rat mGlu1 (Rattus norvegicus, UniProt P23385); assay: mGlu1 PAM functional assay (rat); assay type: cell-based
# [1] = Unbound fraction in brain (rat); assay type: in vitro ADME; settings: read-out: fu brain (rat)
# P-gp = target: T2, P-gp (Homo sapiens, UniProt P08183); assay: MDCK-MDR1 efflux and permeability; assay type: in vitro ADME; settings: for Papp / efflux ratio: dog, MDCK-MDR1; for efflux ratio: read-out: P-gp, MDCK-MDR1 ER
# T2 construct: expressed in transfected cells; host or cells: MDCK-MDR1
# [2] = Solubility in FASSGF and FASSIF; assay type: physicochemical
# T2 sequence (P08183 whole entry): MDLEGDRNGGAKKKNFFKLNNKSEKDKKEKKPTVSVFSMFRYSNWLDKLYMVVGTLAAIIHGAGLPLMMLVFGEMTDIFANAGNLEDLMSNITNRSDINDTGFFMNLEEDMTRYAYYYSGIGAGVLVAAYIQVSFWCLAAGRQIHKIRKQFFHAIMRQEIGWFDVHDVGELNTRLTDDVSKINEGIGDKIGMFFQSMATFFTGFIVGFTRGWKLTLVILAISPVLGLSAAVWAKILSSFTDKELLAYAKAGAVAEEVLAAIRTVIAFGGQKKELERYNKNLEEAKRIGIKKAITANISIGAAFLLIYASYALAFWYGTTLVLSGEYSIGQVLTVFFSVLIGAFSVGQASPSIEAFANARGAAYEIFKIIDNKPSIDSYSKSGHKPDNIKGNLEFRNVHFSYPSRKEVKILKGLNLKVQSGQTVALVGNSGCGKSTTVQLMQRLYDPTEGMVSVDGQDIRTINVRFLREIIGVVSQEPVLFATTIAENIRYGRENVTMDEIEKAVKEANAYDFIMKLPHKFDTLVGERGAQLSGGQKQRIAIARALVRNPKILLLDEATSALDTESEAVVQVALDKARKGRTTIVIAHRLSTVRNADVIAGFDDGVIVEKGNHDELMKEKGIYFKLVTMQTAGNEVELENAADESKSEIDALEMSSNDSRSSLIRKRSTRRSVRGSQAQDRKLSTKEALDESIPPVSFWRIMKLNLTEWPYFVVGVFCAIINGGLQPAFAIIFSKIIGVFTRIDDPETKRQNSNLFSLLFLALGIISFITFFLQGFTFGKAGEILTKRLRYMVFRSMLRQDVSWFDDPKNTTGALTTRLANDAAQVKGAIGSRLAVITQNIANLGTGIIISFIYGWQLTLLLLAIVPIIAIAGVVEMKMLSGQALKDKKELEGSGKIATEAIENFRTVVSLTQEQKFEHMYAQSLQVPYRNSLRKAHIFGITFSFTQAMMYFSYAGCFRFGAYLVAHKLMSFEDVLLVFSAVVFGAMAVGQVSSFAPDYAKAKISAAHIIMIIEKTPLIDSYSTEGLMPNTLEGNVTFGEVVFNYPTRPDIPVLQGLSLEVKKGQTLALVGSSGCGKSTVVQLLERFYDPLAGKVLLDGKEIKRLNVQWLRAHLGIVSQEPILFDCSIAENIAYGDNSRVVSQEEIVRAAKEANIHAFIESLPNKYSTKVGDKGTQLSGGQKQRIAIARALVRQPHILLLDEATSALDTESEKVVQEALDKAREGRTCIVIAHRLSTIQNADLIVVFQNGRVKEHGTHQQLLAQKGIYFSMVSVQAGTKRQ
# Sequence of rat mGlu1 (P23385 19-1199): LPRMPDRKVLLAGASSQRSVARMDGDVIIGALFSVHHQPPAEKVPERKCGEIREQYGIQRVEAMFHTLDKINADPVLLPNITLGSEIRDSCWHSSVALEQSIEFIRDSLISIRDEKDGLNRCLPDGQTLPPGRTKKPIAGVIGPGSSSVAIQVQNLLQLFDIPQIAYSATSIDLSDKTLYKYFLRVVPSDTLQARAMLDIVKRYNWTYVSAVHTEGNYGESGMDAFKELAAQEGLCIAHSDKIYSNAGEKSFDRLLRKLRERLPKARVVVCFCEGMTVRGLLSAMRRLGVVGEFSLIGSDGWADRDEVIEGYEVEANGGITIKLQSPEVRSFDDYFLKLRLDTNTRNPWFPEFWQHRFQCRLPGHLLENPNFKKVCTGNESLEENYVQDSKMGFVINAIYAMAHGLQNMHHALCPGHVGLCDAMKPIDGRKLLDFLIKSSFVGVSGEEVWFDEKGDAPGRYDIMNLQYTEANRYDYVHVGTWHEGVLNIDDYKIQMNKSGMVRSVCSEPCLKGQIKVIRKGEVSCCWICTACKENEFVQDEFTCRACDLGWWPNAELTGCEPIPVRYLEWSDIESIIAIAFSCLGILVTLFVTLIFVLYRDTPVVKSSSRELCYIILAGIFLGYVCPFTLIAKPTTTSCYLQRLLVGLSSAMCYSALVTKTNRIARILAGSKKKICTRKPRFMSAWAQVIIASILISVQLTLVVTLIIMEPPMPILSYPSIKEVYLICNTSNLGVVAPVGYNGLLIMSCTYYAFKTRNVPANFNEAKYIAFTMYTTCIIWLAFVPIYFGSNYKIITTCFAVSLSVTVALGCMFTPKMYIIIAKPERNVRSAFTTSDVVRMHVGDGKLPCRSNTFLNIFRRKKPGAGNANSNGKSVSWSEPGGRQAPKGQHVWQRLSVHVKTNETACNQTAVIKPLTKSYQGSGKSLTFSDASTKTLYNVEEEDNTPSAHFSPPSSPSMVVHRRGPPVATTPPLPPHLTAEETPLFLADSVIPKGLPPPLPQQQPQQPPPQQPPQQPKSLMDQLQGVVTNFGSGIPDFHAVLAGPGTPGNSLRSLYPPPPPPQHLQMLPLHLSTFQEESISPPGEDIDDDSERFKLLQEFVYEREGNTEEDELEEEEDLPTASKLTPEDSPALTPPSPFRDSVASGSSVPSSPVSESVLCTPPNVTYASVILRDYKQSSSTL
# T1 sequence (Q13255 19-1194): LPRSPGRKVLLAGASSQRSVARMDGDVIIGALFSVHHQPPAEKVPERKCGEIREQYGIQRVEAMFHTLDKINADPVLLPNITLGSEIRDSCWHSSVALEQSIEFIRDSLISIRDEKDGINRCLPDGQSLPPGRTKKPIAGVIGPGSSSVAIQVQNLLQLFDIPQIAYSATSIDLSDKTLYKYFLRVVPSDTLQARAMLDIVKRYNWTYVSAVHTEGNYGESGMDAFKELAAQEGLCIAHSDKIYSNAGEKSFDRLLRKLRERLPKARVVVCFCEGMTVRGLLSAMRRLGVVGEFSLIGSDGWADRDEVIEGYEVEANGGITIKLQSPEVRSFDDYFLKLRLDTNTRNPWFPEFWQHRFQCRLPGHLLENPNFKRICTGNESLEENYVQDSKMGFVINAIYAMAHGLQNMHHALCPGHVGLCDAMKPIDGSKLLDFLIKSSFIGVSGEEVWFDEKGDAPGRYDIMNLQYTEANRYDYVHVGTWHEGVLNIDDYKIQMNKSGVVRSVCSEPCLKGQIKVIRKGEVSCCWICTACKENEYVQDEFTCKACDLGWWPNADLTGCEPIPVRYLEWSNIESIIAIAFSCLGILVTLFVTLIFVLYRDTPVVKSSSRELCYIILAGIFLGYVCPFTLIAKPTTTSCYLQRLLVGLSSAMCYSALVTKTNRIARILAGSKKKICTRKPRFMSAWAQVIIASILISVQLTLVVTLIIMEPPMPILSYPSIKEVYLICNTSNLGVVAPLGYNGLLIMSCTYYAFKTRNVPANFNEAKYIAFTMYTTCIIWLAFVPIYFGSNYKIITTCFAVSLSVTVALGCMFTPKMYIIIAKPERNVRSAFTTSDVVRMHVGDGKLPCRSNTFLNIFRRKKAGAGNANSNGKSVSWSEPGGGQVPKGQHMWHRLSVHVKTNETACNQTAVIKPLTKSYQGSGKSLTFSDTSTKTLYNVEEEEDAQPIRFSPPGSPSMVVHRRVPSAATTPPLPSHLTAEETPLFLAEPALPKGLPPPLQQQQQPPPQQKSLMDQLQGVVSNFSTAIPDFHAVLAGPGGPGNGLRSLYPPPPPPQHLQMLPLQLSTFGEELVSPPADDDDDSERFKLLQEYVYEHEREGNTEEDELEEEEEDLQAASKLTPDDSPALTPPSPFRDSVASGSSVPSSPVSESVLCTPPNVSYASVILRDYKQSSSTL
SMILES,EC50 (human mGlu1),human mGlu1 Glu Max (human mGlu1),fold increase in mGlu1 PAM potency over 5 (human mGlu1),EC50 (rat mGlu1),rat mGlu1 Glu Max (rat mGlu1),fraction unbound [1],"P-gp, MDCK-MDR1 ER (P-gp)",Papp (P-gp),efflux ratio (P-gp),"solubility ([2]; FASSGF, fassgf or other biorelevant, read-out: Solubility FASSGF)","solubility ([2]; FASSIF, read-out: Solubility FASSIF)"
Cc1nc(C2CC2)ccc1CNC(=O)c1cc(-n2cccn2)ccc1Cl [compound 8],0.039 µM,65%,~14 fold,0.107 µM,94%,0.062,0.93,420 nm/s,0.93,0.572 mg/mL,0.0236 mg/mL
Cn1nc(-c2ccnn2C)cc1CNC(=O)c1cc(-n2cccn2)ccc1Cl [compound 5],0.527 µM and 0.551 µM,76%,–,0.558 µM,105%,0.185,–,–,–,–,–
Cc1nc2ccccc2cc1CNC(=O)c1cc(-n2cccn2)ccc1Cl [compound 6],0.032 µM,56%,–,–,–,0.047,–,390 nm/s,0.5,–,–
Cc1nc2c(F)cccc2cc1CNC(=O)c1cc(-n2cccn2)ccc1Cl [compound 7],0.017 µM,56%,~31 fold,–,–,0.04,–,–,–,–,–
Cn1cc(-c2cc(CNC(=O)c3cc(-c4ccco4)ccc3Cl)n(C)n2)cn1 [compound 4],0.028 µM,72%,–,0.037 µM,137%,0.044,–,–,–,–,–
